Results from paper PMC11212140, “Molecular Bidents with Two Electrophilic Warheads as a New Pharmacological Modality” (ACS Central Science, 2024).

Columns and labels:
PRP4 = system: T1, PRP4; assay: KiNativ profiling in H3255 cells; assay type: cell-based, human; conditions: 2.5 µM; Lys2; CNILHADIKPDNILVNESK
T1 construct: purchased ActivX Biosciences (KiNativ)

[1] = In vivo pharmacokinetics in mice; conditions: male C57BL/6 mice
Protocol: To address this question, we tested the GSH reactivity of ZNL-0056 (Table S3) and its in vivo pharmacokinetic (PK) properties using three routes of administration including: 1 mg/kg IV, 3 mg/kg IP, and 10 mg/kg PO in male C57BL/6 mice (Table S4).
Table S4. Effect of ZNL-0056 in vivo- PK Parameters
Dose: 1mg/Kg IV, 3mg/Kg IP, 10mg/Kg PO. Formulation: 0.1mg/mL(IV) and 0.3mg/mL (IP)
and 1mg/mL (PO) solution in 5/25/70 EtOH/PEG300/D5W. […]

EGFR^L858R kinase domain = system: T2, EGFR^L858R kinase domain; assay: Determining sites of probe modification by MS; assay type: biochemical; conditions: EGFR^L858R protein, mass spectrometry
T2 construct: purified recombinant EGFR^L858R kinase domain treated by the compounds; made in house
From the text: Covalent docking (CovDock in Schrodinger software suite) was used to predict binding modes and scores of designed bident and mono-valent molecules. Thorough mode was used for docking and top 5 poses for each molecule were inspected visually to identify the most likely binding conformation based on the known core scaffold binding mode. Hinge hydrogen bonds of the core scaffolds were used as constraints in docking calculations. […]
reactive residues, only one cysteine was specified for covalent bond formation during docking of […]
for bident molecules, a proper binding mode required the other warhead in close proximity with its intended reactive cysteine. To obtain the final predicted binding mode in Figure 2B, the pre-reaction cysteine and warhead were manually linked with proper chemical bond, and the complex was optimized using receptor-ligand complex optimization protocol in Schrodinger suite with default settings. The final optimized complex was compared against the original binding mode to ensure minimal changes to the ligand and receptor residue conformations. […]
EGFR protein was treated with indicated probe for 2 hours at 30 °C in 50 mM HEPES buffer 100 mM NaCl pH 7.5. […] Peptides were desalted by C18 and analyzed by nanoLC-MS using a Waters NanoAcquity UPLC (Waters, Milford, MA) interfaced to a Orbitrap QExactive HF mass spectrometer (ThermoFisher Scientific, San Jose, CA). […]

Row | SMILES | Inhibition (PRP4) [%] | area under the curve ([1]; 1 mg/kg IV) | average maximal plasma concentration ([1]; 3 mg/kg IP) [µmol/L] | area under the curve ([1]; 10 mg/kg PO) | average maximal plasma concentration ([1]; 10 mg/kg PO) [µmol/L] | half-life ([1]; mouse, plasma, 1 mg/kg IV) [min] | bioavailability ([1]; mouse, plasma, 10 mg/kg PO) [%] | in vitro labeling of Cys797 and Cys775 (EGFR^L858R kinase domain)
1 | C=CC(=O)Nc1cc(Nc2nccc(-c3cn(C)c4ccccc34)n2)c(OC)cc1N(C)CCN(C)C [Osimertinib, osimertinib, reference compound] | -3.8 |  |  |  |  |  |  | 
2 | C=CC(=O)Nc1cc(C(=O)Nc2nc3cccc(C)c3n2[C@@H]2CCCCN(C(=O)C=C)C2)cs1 [ZNL-0056] |  | 21 820 min·ng/mL | 1.3 | 63 341 min·ng/mL | 1.4 | 19.8 | 24 | high in vitro labeling efficacy
